# In patent publication US20250154554A1, “ANTIMICROBIAL SUSCEPTIBILITY” (priority 2022, published 2025):
# Read-outs that look alike come from different tables or passages of the source.
# Assays:
# [1] = system: Gram-negative bacteria (Enterobacterales, Pseudomonas, Acinetobacter); settings: for RM R (strains resistant by reference method) / RM S (strains susceptible by reference method) / RM I (strains intermediate by reference method): total of 3 sites, blood cultures; for CLSI RM R / EUCAST RM R: number of strains resistant; for CLSI RM S / EUCAST RM S: number of strains susceptible; for CLSI RM I: number of strains I
# Procedure: (§1) For Colistin (on gram-negative bacteria) and vancomycin (in the case of Staphylococcus), the method used to determine the antimicrobial susceptibility was broth microdilution [5]. […] Standard methodologies were performed from the same inoculum used to spike the blood cultures. Quality control of the reference methods was also performed according to the recommendations of EUCAST and CLSI.
# (§2) All the strains were classified as S, I or R according the reference methods. MIC was determined for vancomycin and colistin. The presence of ESBL on Enterobacterales group I, together with the screening for ESBL on Enterobacterales group II, and the screening for AmpC and presence of carbapenemases according EUCAST protocol for detection of mechanisms of resistance were also performed.
# (§3) Positive blood cultures were spiked in blood agar and colonies identified and submitted to antimicrobial susceptibility assay according reference disk diffusion method and/or to MIC values determined by microdilution. The results were analysed using the most recent EUCAST breakpoint tables and the M100 (29th ed.) breakpoint tables from CLSI.
# [2] = system: Gram-positive bacteria (Staphylococcus spp, Enterococcus spp); test: Reference method (RM): disk diffusion and/or broth microdilution, S/I/R classification, Gram-positive strains; type: cell-based; settings: for EUCAST RM I: number of strains I; for CLSI RM R / EUCAST RM R: number of strains resistant; for CLSI RM S / EUCAST RM S: number of strains susceptible;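 on all read-outs here: susceptibility categories assigned with the latest EUCAST breakpoint tables or CLSI M100 29th edition breakpoints, with quality control of the reference methods following EUCAST and CLSI guidance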
# Procedure: as §1, §2, §3
# K. pneumoniae = test: MIC of strains giving very major errors (VME); type: cell-based
# Procedure: as §1, §3
# [3] = CLSI, FASTinov, Porto, spiked on blood cultures
# [4] = CLSI, Hospital Ramon et Cajal, Madrid, patients' blood cultures
# [5] = CLSI, Hospital S. João, Porto, patients' blood cultures
# [6] = EUCAST, FASTinov, Porto, spiked on blood cultures
# [7] = EUCAST, Hospital Ramon et Cajal, Madrid, patients' blood cultures
# [8] = EUCAST, Hospital S. João, Porto, patients' blood cultures
# [9] = CLSI, FASTinov, Porto, spiked blood cultures
# [10] = CLSI, total of 3 sites, blood cultures
# [11] = EUCAST, FASTinov, Porto, spiked blood cultures
# [12] = EUCAST, total of 3 sites, blood cultures
# [13] = EUCAST, Hospital Ramon et Cajal, Madrid, patients blood cultures
# [14] = CLSI, Hospital Ramon et Cajal, Madrid, patients blood cultures
Molecule,RM R (strains resistant by reference method) ([1]; CLSI),RM S (strains susceptible by reference method) ([1]; CLSI),RM R (strains resistant by reference method) ([1]; EUCAST),RM S (strains susceptible by reference method) ([1]; EUCAST),"CLSI RM R [1, 3]","CLSI RM R [1, 4]","EUCAST RM R [1, 6]","EUCAST RM R [1, 7]","EUCAST RM R [1, 8]","CLSI RM S [1, 3]","CLSI RM S [1, 4]","CLSI RM S [1, 5]","EUCAST RM S [1, 6]","EUCAST RM S [1, 7]","EUCAST RM S [1, 8]","RM R (strains resistant by reference method) [2, 9]","RM S (strains susceptible by reference method) [2, 9]","RM R (strains resistant by reference method) [2, 10]","RM S (strains susceptible by reference method) [2, 10]","RM R (strains resistant by reference method) [2, 11]",other results
NCC[C@H](O)C(=O)N[C@@H]1C[C@H](N)[C@@H](O[C@H]2O[C@H](CN)[C@@H](O)[C@H](O)[C@H]2O)[C@H](O)[C@H]1O[C@H]1O[C@H](CO)[C@@H](O)[C@H](N)[C@H]1O [Amikacin],27,316,30,313,25,1,27,1,2,158,77,81,156,77,80,,,,,,"CLSI RM R [1, 5]: 1"
CC1(C)S[C@@H]2[C@H](NC(=O)[C@H](N)c3ccccc3)C(=O)N2[C@H]1C(=O)O [Ampicillin],164,66,165,66,67,53,67,54,44,14,20,32,14,20,32,23,42,38,61,23,"RM S (strains susceptible by reference method) [2, 11]: 42; RM I (strains intermediate by reference method) [2, 12]: 2; RM R (strains resistant by reference method) [2, 12]: 38; RM S (strains susceptible by reference method) [2, 12]: 59; EUCAST RM I [2, 13]: 2; CLSI RM R [2, 14]: 10; CLSI RM R [2, 5]: 5; EUCAST RM R [2, 13]: 10; EUCAST RM R [2, 8]: 5; CLSI RM S [2, 14]: 12; CLSI RM S [2, 5]: 7; EUCAST RM S [2, 13]: 10; EUCAST RM S [2, 8]: 7; RM I (strains intermediate by reference method) ([1]; CLSI): 1; CLSI RM I [1, 4]: 1; CLSI RM R [1, 5]: 44"
CO/N=C(\C(=O)N[C@@H]1C(=O)N2C(C(=O)O)=C(COC(C)=O)CS[C@H]12)c1csc(N)n1 [Cefotaxime],75,156,75,156,54,13,54,13,8,27,61,68,27,61,68,,,,,,"CLSI RM R [1, 5]: 8"
CO[C@@]1(NC(=O)Cc2cccs2)C(=O)N2C(C(=O)O)=C(COC(N)=O)CS[C@@H]21 [Cefoxitin],,,,,,,,,,,,,,,,17,26,52,48,17,"RM S (strains susceptible by reference method) [2, 11]: 26; RM R (strains resistant by reference method) [2, 12]: 52; RM S (strains susceptible by reference method) [2, 12]: 48; CLSI RM R [2, 14]: 9; CLSI RM R [2, 5]: 26; EUCAST RM R [2, 13]: 9; EUCAST RM R [2, 8]: 26; CLSI RM S [2, 14]: 13; CLSI RM S [2, 5]: 9; EUCAST RM S [2, 13]: 13; EUCAST RM S [2, 8]: 9"
C[C@@H](O)[C@H]1C(=O)N2C(C(=O)O)=C(SCCN=CN)C[C@H]12 [Imipenem],,,,,,,,,,,,,,,,,,,,26,"RM I (strains intermediate by reference method) [2, 11]: 39; EUCAST RM I [2, 13]: 12; EUCAST RM R [2, 13]: 1"
CC(=O)NC[C@H]1CN(c2ccc(N3CCOCC3)c(F)c2)C(=O)O1 [Linezolid],,,,,,,,,,,,,,,,3,128,5,298,3,"RM S (strains susceptible by reference method) [2, 11]: 128; RM R (strains resistant by reference method) [2, 12]: 5; RM S (strains susceptible by reference method) [2, 12]: 298; CLSI RM R [2, 5]: 2; EUCAST RM R [2, 8]: 2; CLSI RM S [2, 14]: 68; CLSI RM S [2, 5]: 102; EUCAST RM S [2, 13]: 68; EUCAST RM S [2, 8]: 102"
Cc1onc(-c2ccccc2)c1C(=O)N[C@@H]1C(=O)N2[C@@H]1SC(C)(C)[C@@H]2C(=O)O [Oxacillin],,,,,,,,,,,,,,,,19,4,74,14,19,"RM S (strains susceptible by reference method) [2, 11]: 4; RM R (strains resistant by reference method) [2, 12]: 74; RM S (strains susceptible by reference method) [2, 12]: 14; CLSI RM R [2, 14]: 19; CLSI RM R [2, 5]: 36; EUCAST RM R [2, 13]: 19; EUCAST RM R [2, 8]: 36; CLSI RM S [2, 14]: 5; CLSI RM S [2, 5]: 5; EUCAST RM S [2, 13]: 5; EUCAST RM S [2, 8]: 5"
Amoxacillin-clavulanic acid,107,110,125,106,56,19,62,30,33,20,46,44,19,44,43,,,,,,"RM I (strains intermediate by reference method) ([1]; CLSI): 14; CLSI RM I [1, 3]: 5; CLSI RM I [1, 4]: 9; CLSI RM R [1, 5]: 32"
Ceftazidime-avibactam,8,307,8,307,8,1,8,,,145,81,81,145,81,81,,,,,,
Ceftolozane-tazobactam,40,267,45,267,37,3,41,3,1,112,75,80,112,75,80,,,,,,"MIC (K. pneumoniae; strain EB 032, site 3): 4 µg/mL; MIC (K. pneumoniae; strain EB 101, site 1): >32 µg/mL; MIC (K. pneumoniae; strain EB 677, site 1): 16 µg/mL; MIC (K. pneumoniae; strain EB 679, site 1): >32 µg/mL; RM I (strains intermediate by reference method) ([1]; CLSI): 5; CLSI RM I [1, 3]: 4; CLSI RM I [1, 5]: 1"
Gentamicin [Gentamicin high level],,,,,,,,,,,,,,,,12,35,15,51,12,"RM S (strains susceptible by reference method) [2, 11]: 35; RM R (strains resistant by reference method) [2, 12]: 15; RM S (strains susceptible by reference method) [2, 12]: 51; CLSI RM R [2, 14]: 2; CLSI RM R [2, 5]: 1; EUCAST RM R [2, 13]: 2; EUCAST RM R [2, 8]: 1; CLSI RM S [2, 14]: 10; CLSI RM S [2, 5]: 6; EUCAST RM S [2, 13]: 10; EUCAST RM S [2, 8]: 6"
